Assay results taken from ChEMBL document CHEMBL1139551, “2,3-Ethylene- and 2,3-trimethylene-bridged analogues of the group III metabotropic glutamate receptor ligand 2-amino-4-phosphonobutanoic acid” (Bioorg Med Chem Lett, 2005).
pEC50: −log10 of the molar value.

Target: T1, Metabotropic glutamate receptor 4 (Homo sapiens, UniProt Q14833)
Assay: Effective concentration which exhibit agonistic activity at metabotropic glutamate 4 receptor stably expressed in AV12 cells
Type: functional, cell-based

T1 sequence (Q14833 whole entry): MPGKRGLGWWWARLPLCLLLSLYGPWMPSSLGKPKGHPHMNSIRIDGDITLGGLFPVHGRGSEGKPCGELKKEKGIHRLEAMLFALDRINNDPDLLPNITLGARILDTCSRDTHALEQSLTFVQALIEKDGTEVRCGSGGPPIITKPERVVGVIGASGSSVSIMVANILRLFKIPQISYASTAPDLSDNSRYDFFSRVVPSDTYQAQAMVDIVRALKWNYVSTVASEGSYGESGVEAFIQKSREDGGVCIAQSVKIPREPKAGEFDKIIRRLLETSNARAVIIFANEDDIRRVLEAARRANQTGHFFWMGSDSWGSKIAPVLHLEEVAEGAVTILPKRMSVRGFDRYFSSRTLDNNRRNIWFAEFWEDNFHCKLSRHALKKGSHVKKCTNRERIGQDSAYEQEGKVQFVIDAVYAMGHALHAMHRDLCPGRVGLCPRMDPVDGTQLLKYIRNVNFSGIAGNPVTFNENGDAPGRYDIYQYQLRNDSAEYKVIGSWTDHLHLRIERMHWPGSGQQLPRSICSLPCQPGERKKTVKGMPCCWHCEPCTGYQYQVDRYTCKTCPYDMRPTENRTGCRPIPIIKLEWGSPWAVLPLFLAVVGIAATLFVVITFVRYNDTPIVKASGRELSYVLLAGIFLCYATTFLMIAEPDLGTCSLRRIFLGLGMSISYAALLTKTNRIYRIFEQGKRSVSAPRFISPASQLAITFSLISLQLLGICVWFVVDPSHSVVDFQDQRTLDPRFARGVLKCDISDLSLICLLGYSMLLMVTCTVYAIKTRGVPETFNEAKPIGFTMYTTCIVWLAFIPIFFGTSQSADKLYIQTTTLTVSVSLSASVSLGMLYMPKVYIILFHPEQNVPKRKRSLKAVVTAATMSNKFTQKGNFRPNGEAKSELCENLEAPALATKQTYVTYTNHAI

Structure (SMILES) | pEC50
NC1(C(=O)O)CC1CP(=O)(O)O (stereo in doubt; 3) | 5.10
NC1(C(=O)O)CC1CP(=O)(O)O (stereo in doubt; 4) | 6.24

Target: T1, Metabotropic glutamate receptor 4
Assay: Agonistic activity towards group III Metabotropic glutamate receptor stably expressed in AV12 cells when tested up to 200 uM; NS means no significant activity
Type: functional, cell-based

Structure (SMILES) | Activity
NC1(C(=O)O)CCC1CP(=O)(O)O (stereo in doubt; 5) | No significant activity
NC1(C(=O)O)CCC1CP(=O)(O)O (stereo in doubt; 6) | No significant activity

Results, then the compound that gave them:

Activity | Structure (SMILES)
No significant activity | NC1(C(=O)O)CCCC1CP(=O)(O)O (stereo in doubt; 8)
No significant activity | NC1(C(=O)O)CCCC1CP(=O)(O)O (stereo in doubt; 7)
